Measurements taken from ChEMBL document CHEMBL5608189, “Design and synthesis of unique indole-benzosulfonamide oleanolic acid derivatives as potent antibacterial agents against MRSA” (Eur J Med Chem, 2024).
Values after ≈ are worked out from the molar mass of the structure shown. Active and inactive are the calls of the source. The calls are words filed in the database; no cut-off is given here.

What was measured:
Staphylococcus aureus [1] = test: Antibacterial activity against Staphylococcus aureus ATCC 6538 measured after 24 hrs by susceptibility assay; assay type: functional
Staphylococcus aureus [2] = test: Antibacterial activity against Staphylococcus aureus ATCC 29213 measured after 24 hrs by susceptibility assay; assay type: functional
Staphylococcus aureus [3] = test: Induction of morphological changes in methicillin-resistant Staphylococcus aureus assessed as disruption of cellular structure at 8 times MIC incubated for 8 hrs by SEM analysis; assay type: functional, organism-based
Staphylococcus aureus [4] = test: Antibacterial activity against methicillin-resistant Staphylococcus aureus measured after 24 hrs by susceptibility assay; assay type: functional
[5] = system: Staphylococcus epidermidis; test: Antibacterial activity against Staphylococcus epidermidis ATCC 12228 measured after 24 hrs by susceptibility assay; assay type: functional
Staphylococcus aureus [6] = test: Induction of morphological changes in methicillin-resistant Staphylococcus aureus assessed as appearance of wrinkled and depressed cell membrane surface at 8 times MIC incubated for 8 hrs by SEM analysis; assay type: functional, organism-based
[7] = system: Staphylococcus epidermidis; test: Bactericidal activity against Staphylococcus epidermidis ATCC 12228 measured after 24 hrs; assay type: functional
[8] = Hemolytic activity in rabbit red blood cells assessed as hemolytic rate at 128 times MIC measured after 1 hr by absorbance based method relative to control; assay type: toxicity, cell-based, Oryctolagus cuniculus, Erythrocyte; conditions: rabbit red blood cells (erythrocytes), read-out: Activity
Staphylococcus aureus [9] = test: Resistant development in methicillin-resistant Staphylococcus aureus assessed as increase in MIC at sub-MIC measured after 20 passages; assay type: functional, organism-based
Staphylococcus aureus [10] = test: Antibacterial activity against Staphylococcus aureus ATCC 6538 assessed as delay in bacterial growth at 0.5 times MIC measured every 2 hrs for 24 hrs by time kill assay; assay type: functional, organism-based
Staphylococcus aureus [11] = test: Antibacterial activity against methicillin-resistant Staphylococcus aureus assessed as inhibition of bacterial growth at 2 to 4 times MIC measured every 2 hrs for 24 hrs by time kill assay relative to control; assay type: functional
Staphylococcus aureus [12] = test: Antibacterial activity against Staphylococcus aureus ATCC 6538 assessed as inhibition of bacterial growth at 2 to 4 times MIC measured every 2 hrs for 24 hrs by time kill assay relative to control; assay type: functional
[13] = system: Staphylococcus epidermidis; test: Antibacterial activity against Staphylococcus epidermidis ATCC 12228 assessed as delay in bacterial growth at 0.5 times MIC measured every 2 hrs for 24 hrs by time kill assay; assay type: functional, organism-based
[14] = system: Staphylococcus epidermidis; test: Antibacterial activity against Staphylococcus epidermidis ATCC 12228 assessed as inhibition of bacterial growth at 1 times MIC measured every 2 hrs for 24 hrs by time kill assay; assay type: functional, organism-based
[15] = system: Staphylococcus epidermidis; test: Antibacterial activity against Staphylococcus epidermidis ATCC 12228 assessed as inhibition of bacterial growth at 2 to 4 times MIC measured every 2 hrs for 24 hrs by time kill assay relative to control; assay type: functional
Staphylococcus aureus [16] = test: Antibacterial activity against Staphylococcus aureus ATCC 6538 assessed as inhibition of bacterial growth at 1 times MIC measured every 2 hrs for 24 hrs by time kill assay; assay type: functional, organism-based
Staphylococcus aureus [17] = test: Antibacterial activity against methicillin-resistant Staphylococcus aureus assessed as delay in bacterial growth at 0.5 times MIC measured every 2 hrs for 24 hrs by time kill assay; assay type: functional, organism-based
Staphylococcus aureus [18] = test: Bactericidal activity against methicillin-resistant Staphylococcus aureus measured after 24 hrs; assay type: functional
Staphylococcus aureus [19] = test: Antibacterial activity against methicillin-resistant Staphylococcus aureus assessed as inhibition of bacterial growth at 1 times MIC measured every 2 hrs for 24 hrs by time kill assay; assay type: functional, organism-based
Staphylococcus aureus [20] = test: Bactericidal activity against Staphylococcus aureus ATCC 6538 measured after 24 hrs; assay type: functional
Staphylococcus aureus [21] = test: Bactericidal activity against Staphylococcus aureus ATCC 29213 measured after 24 hrs; assay type: functional

CCn1cc(C(=O)O)c(=O)c2cc(F)c(N3CCNCC3)cc21 [NORFLOXACIN]
MIC (Staphylococcus aureus [1]): 2 µM (≈ 0.639 µg/mL) | MIC (Staphylococcus aureus [2]): 2 µM (≈ 0.639 µg/mL) | Activity (Staphylococcus aureus [3]): inactive | MIC (Staphylococcus aureus [4]): 4 µM (≈ 1.28 µg/mL) | MIC [5]: 1 µM (≈ 0.319 µg/mL) | Activity (Staphylococcus aureus [6]): Active

CC(=O)c1cccc2c3c([nH]c12)C(C)(C)[C@@H]1CC[C@]2(C)[C@H](CC=C4[C@@H]5CC(C)(C)CC[C@]5(C(=O)NS(=O)(=O)c5ccccc5)CC[C@]42C)[C@@]1(C)C3
MBC [7]: 2 µM (≈ 1.42 µg/mL) | hemolysis at 1 h, 128 times MIC [8]: < 5% | Activity (Staphylococcus aureus [9]): inactive | Activity (Staphylococcus aureus [10]): Active | inhibition (INH) (Staphylococcus aureus [11]): 100% | inhibition (INH) (Staphylococcus aureus [12]): 100% | Activity [13]: Active | MIC (Staphylococcus aureus [1]): 1 µM (≈ 0.709 µg/mL) | Activity [14]: Active | inhibition (INH) [15]: 100% | MIC (Staphylococcus aureus [2]): 2 µM (≈ 1.42 µg/mL) | MIC (Staphylococcus aureus [4]): 1 µM (≈ 0.709 µg/mL) | Activity (Staphylococcus aureus [16]): Active | Activity (Staphylococcus aureus [17]): Active | MIC [5]: 0.5 µM (≈ 0.355 µg/mL) | MBC (Staphylococcus aureus [18]): 4 µM (≈ 2.84 µg/mL) | Activity (Staphylococcus aureus [19]): Active | MBC (Staphylococcus aureus [20]): 2 µM (≈ 1.42 µg/mL) | MBC (Staphylococcus aureus [21]): 2 µM (≈ 1.42 µg/mL)

CN1CCN(C(=O)[C@]23CCC(C)(C)C[C@H]2C2=CC[C@@H]4[C@@]5(C)Cc6c([nH]c7cccc(C(=O)O)c67)C(C)(C)[C@@H]5CC[C@@]4(C)[C@]2(C)CC3)CC1
MIC (Staphylococcus aureus [1]): > 256 µM | MIC (Staphylococcus aureus [2]): > 256 µM | MIC (Staphylococcus aureus [4]): > 256 µM | MIC [5]: > 256 µM

COc1ccc(S(=O)(=O)NC(=O)[C@]23CCC(C)(C)C[C@H]2C2=CC[C@@H]4[C@@]5(C)Cc6c([nH]c7cc(C(=O)O)ccc67)C(C)(C)[C@@H]5CC[C@@]4(C)[C@]2(C)CC3)cc1
MIC (Staphylococcus aureus [1]): 1 µM (≈ 0.741 µg/mL) | MIC (Staphylococcus aureus [2]): 4 µM (≈ 2.96 µg/mL) | MIC (Staphylococcus aureus [4]): 4 µM (≈ 2.96 µg/mL) | MIC [5]: 2 µM (≈ 1.48 µg/mL)

Cc1ccc(S(=O)(=O)NC(=O)[C@]23CCC(C)(C)C[C@H]2C2=CC[C@@H]4[C@@]5(C)Cc6c([nH]c7c(C(=O)O)cccc67)C(C)(C)[C@@H]5CC[C@@]4(C)[C@]2(C)CC3)cc1
MBC [7]: 4 µM (≈ 2.9 µg/mL) | hemolysis at 1 h, 128 times MIC [8]: < 5% | Activity (Staphylococcus aureus [9]): inactive | Activity (Staphylococcus aureus [10]): Active | inhibition (INH) (Staphylococcus aureus [11]): 100% | inhibition (INH) (Staphylococcus aureus [12]): 100% | Activity [13]: Active | MIC (Staphylococcus aureus [1]): 1 µM (≈ 0.725 µg/mL) | Activity [14]: Active | inhibition (INH) [15]: 100% | MIC (Staphylococcus aureus [2]): 2 µM (≈ 1.45 µg/mL) | MIC (Staphylococcus aureus [4]): 2 µM (≈ 1.45 µg/mL) | Activity (Staphylococcus aureus [16]): Active | Activity (Staphylococcus aureus [17]): Active | MIC [5]: 2 µM (≈ 1.45 µg/mL) | MBC (Staphylococcus aureus [18]): 16 µM (≈ 11.6 µg/mL) | Activity (Staphylococcus aureus [19]): Active | MBC (Staphylococcus aureus [20]): 2 µM (≈ 1.45 µg/mL) | MBC (Staphylococcus aureus [21]): 2 µM (≈ 1.45 µg/mL)

CC1(C)CC[C@]2(C(=O)NS(=O)(=O)c3ccccc3)CC[C@]3(C)C(=CC[C@@H]4[C@@]5(C)Cc6c([nH]c7ccc(F)cc67)C(C)(C)[C@@H]5CC[C@]43C)[C@@H]2C1
MIC (Staphylococcus aureus [1]): > 256 µM | MIC (Staphylococcus aureus [2]): > 256 µM | MIC (Staphylococcus aureus [4]): > 256 µM | MIC [5]: > 256 µM

Cc1ccc(S(=O)(=O)NC(=O)[C@]23CCC(C)(C)C[C@H]2C2=CC[C@@H]4[C@@]5(C)Cc6c([nH]c7cc(C(=O)O)ccc67)C(C)(C)[C@@H]5CC[C@@]4(C)[C@]2(C)CC3)cc1
MIC (Staphylococcus aureus [1]): 1 µM (≈ 0.725 µg/mL) | MIC (Staphylococcus aureus [2]): 2 µM (≈ 1.45 µg/mL) | MIC (Staphylococcus aureus [4]): 2 µM (≈ 1.45 µg/mL) | MIC [5]: 1 µM (≈ 0.725 µg/mL)

COc1cccc(OC)c1C(=O)N[C@@H]1C(=O)N2[C@@H]1SC(C)(C)[C@@H]2C(=O)O [METHICILLIN]
MIC (Staphylococcus aureus [1]): 4 µM (≈ 1.52 µg/mL) | MIC (Staphylococcus aureus [2]): 2 µM (≈ 0.761 µg/mL) | MIC (Staphylococcus aureus [4]): 256 µM (≈ 97.4 µg/mL) | MIC [5]: 2 µM (≈ 0.761 µg/mL)

CC1(C)CC[C@]2(C(=O)NS(=O)(=O)c3ccccc3)CC[C@]3(C)C(=CC[C@@H]4[C@@]5(C)CCC(=O)C(C)(C)[C@@H]5CC[C@]43C)[C@@H]2C1
MIC (Staphylococcus aureus [1]): 128 µM (≈ 76 µg/mL) | MIC (Staphylococcus aureus [2]): > 256 µM | MIC (Staphylococcus aureus [4]): > 256 µM | MIC [5]: > 256 µM
